Common to all, as to settings: in vivo
Series [1] is described as follows: Drug uptake in cynomolgus monkey cerebellum after 60 to 90 mins by PET imaging analysis. It counts as ADME, tissue-based, Macaca fascicularis.
Series [2] can be described thus: Drug uptake in cynomolgus monkey striatum after 10 mins by PET imaging analysis. In kind it is ADME, tissue-based, Macaca fascicularis.
Series [3] in a line: Half life in cynomolgus monkey cerebellum by PET imaging analysis. It counts as ADME, tissue-based, Macaca fascicularis.
Series [4] can be described thus: Drug uptake in cynomolgus monkey cortex after 60 to 90 mins by PET imaging analysis. In kind it is ADME, tissue-based, Macaca fascicularis.
The nature of series [5]: Drug uptake in cynomolgus monkey striatum after 60 to 90 mins by PET imaging analysis. It counts as ADME, tissue-based, Macaca fascicularis.
Series [6] is described as follows: Drug uptake in cynomolgus monkey cerebellum after 5 mins by PET imaging analysis. It counts as ADME, Macaca fascicularis.
Series [7] deals with Brain. Put plainly: Drug uptake in cynomolgus monkey brain assessed as dopamine synthesis after 60 to 90 mins by PET imaging analysis in presence of carbidopa. In kind it is ADME, tissue-based, Macaca fascicularis.
A short description of series [8]: Drug uptake in cynomolgus monkey cerebellum after 40 to 60 mins by PET imaging analysis. In kind it is ADME, tissue-based, Macaca fascicularis.
Series [9] in a line: Drug uptake in cynomolgus monkey striatum after 40 to 60 mins by PET imaging analysis. It counts as ADME, tissue-based, Macaca fascicularis.

Turning to `[11CH3]c1ccc(O)cc1C[C@H](N)C(=O)O`, the Drug uptake entry in series [1], in [2], in [4], in [5], in series [6] and in series [7] was “Active” throughout. For the same compound, the Drug uptake entry in series [8] and in [9] was “Active” each time. In series [3], this compound displayed a t1/2 of 30 min.

Turning to `N[C@@H](Cc1cc(O)c(O)cc1[18F])C(=O)O` [FLUORODOPA F 18], the Drug uptake entry in [1], in series [2], in [4], in series [5], in series [6] and in [7] was “Active” each time. Moreover, the Drug uptake result in series [8] and in series [9] was “Active” in each case. For the same compound, in series [3], the t1/2 was determined as 50 min.
